The test system of experiment [1] is Puccinia recondita. Type of experiment: in vivo. Conditions: for PUCCRT Disease level (%) P1 at 63 ppm: wheat, preventative spray 1 day before inoculation, % diseased leaf area, untreated 82.
The subject of experiment [2] is Qol (F129L) resistant isolate of Pyrenophora teres. The experiment can be described thus: Microtest: activity against resistant isolate of net blotch pathogen Pyrenophora teres (PYRNTE res). Type of experiment: cell-based. Conditions: relative growth vs active compound-free control (100%), 405 nm, 7 days after inoculation, 18°C.
Another experiment deals with Pyricularia oryzae. Type of experiment: cell-based. Conditions: PYRIOR, relative growth vs active compound-free control (100%), 405 nm, 7 days after inoculation, 18°C.
Another experiment relates to Alternaria solani. The class given is cell-based.
The subject of experiment [3] is Puccinia recondita. Type of experiment: in vivo. Conditions: for PUCCRT Disease level (%) K4 at 63 ppm: wheat, curative spray 4 days after inoculation, % diseased leaf area, untreated 85.
The test system of another experiment is Sclerotinia sclerotiorum. The class given is cell-based.
Experiment [4] has as its system Colletotrichum orbiculare. Briefly: Microtest: activity against anthracnose pathogen Colletotrichum orbiculare (COLLLA). Type of experiment: cell-based. Conditions: relative growth vs active compound-free control (100%), 405 nm, 7 days after inoculation, 18°C.
The test system of the next experiment is Septoria tritici. The experiment can be described thus: Microtest: activity against wheat leaf blotch pathogen Septoria tritici (SEPTTR). Type of experiment: cell-based. The following applies: relative growth vs active compound-free control (100%), 405 nm, 7 days after inoculation, 18°C.
The subject of experiment [5] is Phakopsora pachyrhizi. Briefly: Greenhouse: protective control of soybean rust on soybeans caused by Phakopsora pachyrhizi (PHAKPA P2). The class given is in vivo. The following applies: spray 2 days before inoculation, F129L strain, % diseased leaf area, untreated 97.
Another experiment deals with Leptosphaeria nodorum. The experiment can be described thus: Microtest: activity against Leptosphaeria nodorum causing wheat leaf spots (LEPTNO). The class given is cell-based. Conditions: relative growth vs active compound-free control (100%), 405 nm, 7 days after inoculation, 18°C.
Experiment [6] has as its system Phakopsora pachyrhizi. The experiment can be described thus: Greenhouse: protective control of soybean rust on soybeans caused by Phakopsora pachyrhizi (PHAKPA P6). Type of experiment: in vivo. The following applies: spray six days before inoculation, F129L strain, % diseased leaf area, untreated 74.
For experiment [7], the system named is Qol (G143A) resistant isolate of Septoria tritici. The experiment can be described thus: Microtest: activity against resistant isolate of Septoria tritici (SEPTTR res). Type of experiment: cell-based. The following applies: relative growth vs active compound-free control (100%), 405 nm, 7 days after inoculation, 18°C.
In a further experiment the test system is Cercospora sojina. Type of experiment: cell-based.
Another experiment deals with Phytophthora infestans. Type of experiment: cell-based. The following applies: PHYTIN, relative growth vs active compound-free control (100%), 405 nm, 7 days after inoculation, 18°C.
Experiment [8] relates to Qol (F129L) resistant isolate of Alternaria solani. The experiment can be described thus: Microtest: activity against resistant isolate of Alternaria solani (ALTESO res). The following applies: relative growth vs active compound-free control (100%), 405 nm, 7 days after inoculation, 18°C. Type of experiment: cell-based.
Where [9] appears, read: ALTESO, relative growth vs active compound-free control (100%), 405 nm, 7 days after inoculation, 18°C.
Where [10] appears, read: SCLESC, relative growth vs active compound-free control (100%), 405 nm, 7 days after inoculation, 18°C.

Where two headings read alike, the source gives them in different places.

As for “Ethyl N-[2-[[(E)-[3-(4-chlorophenyl)-1-methyl-prop-2-ynylidene]amino]oxymethyl]-phenyl]-N-methoxy-carbamate [Compound 5]”, the “PUCCRT Disease level (%) P1 at 63 ppm” value with Puccinia recondita [1] was found to be 10%. For the same compound, the “Growth (%) at 125 ppm” value stood at 0% in [2]; 0% in the experiment on Pyricularia oryzae; 10% in the experiment on Alternaria solani (setting [9]); 12% in the experiment on Sclerotinia sclerotiorum (setting [10]); 0% in experiment [4]; 0% in the experiment with Septoria tritici. Moreover, the “Growth (%) at 125 ppm” value in the experiment with Leptosphaeria nodorum worked out at 0%. The “PUCCRT Disease level (%) K4 at 63 ppm” value in the experiment on Puccinia recondita [3] was 70%. Besides, the “PHAKPA Disease level (%) P2 at 63 ppm” value in the experiment with Phakopsora pachyrhizi [5] amounted to 43%. Besides, the “PHAKPA Disease level (%) P6 at 63 ppm” value with Phakopsora pachyrhizi [6] is 48%.
`C/C(C#Cc1ccc(Cl)cc1)=N\OCc1ccccc1-n1nnn(C)c1=O` [Compound 1, 1-[2-[[(E)-[3-(4-Chlorophenyl)-1-methyl-prop-2-ynylidene]amino]oxymethyl]phenyl]-4-methyl-tetrazol-5-one]: the “Growth (%) at 125 ppm” value in the experiment on Pyricularia oryzae was determined as 0%; in [7], 13%; with Cercospora sojina, 0%; with Sclerotinia sclerotiorum, 11%; in the experiment on Septoria tritici, 5%.
For `COc1nn(C)c(=O)n1-c1ccccc1CO/N=C(\C)C#Cc1cccc(Cl)c1` [Compound 4, 4-[2-[[(E)-[3-(3-Chlorophenyl)-1-methyl-prop-2-ynylidene]amino]oxymethyl]phenyl]-5-methoxy-2-methyl-1,2,4-triazol-3-one], the “Growth (%) at 125 ppm” value in the experiment on Phytophthora infestans is given as 0%; in experiment [2], 0%; with Pyricularia oryzae, 0%; in experiment [7] it was 0%; in the experiment with Alternaria solani, 4%; in experiment [8] it was 16%. Besides, the “Growth (%) at 125 ppm” value with Sclerotinia sclerotiorum amounted to 17%; with Septoria tritici, 0%; in the experiment with Leptosphaeria nodorum it was 7%. The “PUCCRT Disease level (%) P1 at 16 ppm” value with Puccinia recondita [1] was 13%. Moreover, in the experiment with Puccinia recondita [3], the “PUCCRT Disease level (%) K4 at 16 ppm” value was found to be 31%.
For “(E)-4-(3-Chlorophenyl)-N-[[2-[(E)-C-(1,4,2-dioxazin-3-yl)-N-methoxy-carbonimido-yl]phenyl]methoxy]but-3-yn-2-imine [Compound 8]”, the “PUCCRT Disease level (%) P1 at 63 ppm” value in the experiment on Puccinia recondita [1] was found to be 0%. The “Growth (%) at 125 ppm” value turned out to be 0% in the experiment with Pyricularia oryzae; 2% with Alternaria solani (setting [9]); 19% in the experiment with Sclerotinia sclerotiorum (setting [10]); 0% in experiment [4]; 0% in the experiment with Septoria tritici; 2% in the experiment with Leptosphaeria nodorum. Moreover, the “PUCCRT Disease level (%) K4 at 63 ppm” value in the experiment on Puccinia recondita [3] amounted to 28%. The “PHAKPA Disease level (%) P2 at 63 ppm” value with Phakopsora pachyrhizi [5] amounted to 7%. The “PHAKPA Disease level (%) P6 at 63 ppm” value in the experiment on Phakopsora pachyrhizi [6] amounted to 12%.
On to “Ethyl N-[2-[[(E)-[3-(3-chlorophenyl)-1-methyl-prop-2-ynylidene]amino]oxymethyl]-phenyl]-N-methoxy-carbamate [Compound 6]”, for which the “PUCCRT Disease level (%) P1 at 63 ppm” value in the experiment on Puccinia recondita [1] came to 7%. In addition, the “Growth (%) at 125 ppm” value in experiment [2] amounted to 0%; in the experiment on Pyricularia oryzae, 0%; in the experiment on Alternaria solani (setting [9]), 0%; with Sclerotinia sclerotiorum (setting [10]) it was 17%; in [4] it was 0%; with Septoria tritici it was 0%. The “Growth (%) at 125 ppm” value in the experiment on Leptosphaeria nodorum was found to be 0%. Further, the “PUCCRT Disease level (%) K4 at 63 ppm” value in the experiment on Puccinia recondita [3] amounted to 50%. Further, in the experiment on Phakopsora pachyrhizi [5], the “PHAKPA Disease level (%) P2 at 63 ppm” value was determined as 11%. The “PHAKPA Disease level (%) P6 at 63 ppm” value with Phakopsora pachyrhizi [6] was determined as 13%.
Take `COc1nn(C)c(=O)n1-c1ccccc1CO/N=C(\C)C#Cc1ccc(Cl)cc1` [Compound 2, 4-[2-[[(E)-[3-(4-Chlorophenyl)-1-methyl-prop-2-ynylidene]amino]oxymethyl]phenyl]-5-methoxy-2-methyl-1,2,4-triazol-3-one]: the “PUCCRT Disease level (%) P1 at 16 ppm” value with Puccinia recondita [1] is recorded as 11%. Further, in the experiment with Pyricularia oryzae, the “Growth (%) at 125 ppm” value is given as 16%. Also, in the experiment with Puccinia recondita [3], the “PUCCRT Disease level (%) K4 at 16 ppm” value came out at 30%.
Regarding “(E)-4-(4-chlorophenyl)-N-[[2-[(E)-C-(1,4,2-dioxazin-3-yl)-N-methoxy-carbonimidoyl]-phenyl]methoxy]but-3-yn-2-imine [Compound 7]”, the “PUCCRT Disease level (%) P1 at 63 ppm” value with Puccinia recondita [1] is reported as 13%. For the same compound, the “Growth (%) at 125 ppm” value stood at 0% in the experiment with Pyricularia oryzae; 1% in the experiment with Alternaria solani (setting [9]); 1% with Sclerotinia sclerotiorum (setting [10]); 0% in experiment [4]; 0% in the experiment on Septoria tritici; 0% with Leptosphaeria nodorum. In the experiment with Puccinia recondita [3], the “PUCCRT Disease level (%) K4 at 63 ppm” value is reported as 53%. In addition, the “PHAKPA Disease level (%) P2 at 63 ppm” value with Phakopsora pachyrhizi [5] amounted to 33%. Besides, in the experiment with Phakopsora pachyrhizi [6], the “PHAKPA Disease level (%) P6 at 63 ppm” value is on record as 32%.

Values taken from patent EP4242199A1 (priority 2022, dated 2023).
